Experimental data as given in ChEMBL document CHEMBL1152033, “Spiro-piperidine non-peptide neurokinin-1 receptor antagonists” (Bioorg Med Chem Lett, 1995).

Target: Substance-P receptor (Homo sapiens, UniProt P25103)
Test: Binding affinity measured by displacement of tritiated radiolabeled substance P from cloned human NK1 receptor expressed in CHO cell membranes

Sequence of Substance-P receptor (P25103 whole entry): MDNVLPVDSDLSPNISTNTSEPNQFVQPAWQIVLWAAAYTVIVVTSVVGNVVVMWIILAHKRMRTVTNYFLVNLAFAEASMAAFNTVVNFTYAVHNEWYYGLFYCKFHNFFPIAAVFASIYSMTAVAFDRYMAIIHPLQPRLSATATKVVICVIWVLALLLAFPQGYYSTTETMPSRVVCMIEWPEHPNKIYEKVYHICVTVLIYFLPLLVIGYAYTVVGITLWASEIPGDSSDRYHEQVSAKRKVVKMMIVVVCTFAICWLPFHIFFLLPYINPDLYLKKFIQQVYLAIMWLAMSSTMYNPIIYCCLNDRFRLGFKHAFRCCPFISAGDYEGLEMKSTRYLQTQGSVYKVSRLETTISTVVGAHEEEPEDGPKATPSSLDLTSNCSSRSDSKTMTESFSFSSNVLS

SMILES | Ki [nM]
COc1ccccc1CN[C@H]1CCCN[C@]12CCc1ccccc12 | 39.8
COc1ccccc1CN[C@H]1CCCN[C@@]12CCc1ccccc12 | > 1000
